Source: article PMC7865655, “Click Conjugation of Boron Dipyrromethene (BODIPY) Fluorophores to EGFR-Targeting Linear and Cyclic Peptides” (Molecules, 2021)

What was measured:
[1] = test system: HEp2 cells; test: Phototoxicity (~1 J·cm^−2), CellTiter Blue assay; format: cell-based, human; details: up to 100 µM, light dose ~1 J·cm^−2, CellTiter Blue
Experimental: In addition to dark toxicity, phototoxicity was assessed for the BODIPYs and their conjugates, under a low light dose of ~1 J·cm^−2 in human carcinoma HEp2 cells using the CTB assay to determine cell viability. Dose-dependent cell survival curves of each compound over the incubation period of 24 h are shown in Figure S20 (Supporting Information). […] Nevertheless, all conjugates are considered to have low phototoxicity in HEp2 cells at the low light dose used in this study.
(§1) For cellular studies, commercially available reagents and culture media were purchased from Life Technologies (Carlsbad, CA, USA) and human carcinoma HEp2 (ATCC CCL-23) cells were purchased from the American Type Culture Collection (ATCC) (Manassas, Virginia, USA). HEp2 cells were cultured and maintained at 37 °C under 5% CO2 and 95% humidity in minimum essential media (MEM) supplemented with 10% fetal bovine serum (FBS) and 1% penicillin-streptomycin (P/S).
HEp2 cells were exposed to working solutions of each compound up to 100 µM (0, 3.125, 6.25, 12.5, 25, 50, and 100 µM) and incubated for 24 h (5% CO2, 95% humidity, 37 °C). The loading medium was removed and the cells were washed with PBS solution. […] Cell viability was assessed as described above.

[2] = test system: HEp2 cells; test: Dark cytotoxicity, CellTiter Blue assay; format: cell-based, human; details: 24 h incubation, up to 200 µM, darkness
Experimental: The dark toxicity of all compounds was determined in HEp2 cells at concentrations up to 200 µM, using a CellTiter Blue (CTB) assay to determine cell viability. BODIPYs 1 and 2 (lacking peptide) were included in this study for comparison purposes. […] This might be a result of the presence of the indole group, since it is a known pharmacophore and the basis of many drugs, such as indomethacin [44, 49].
as §1
Stock solutions (32 mM) for compounds 1, 2, 3, 4, and 5 were prepared using 100% DMSO as the solvent. […] Following the incubation period, cell viability was assessed by determining fluorescence intensity at 570/615 nm using a BMG FLUOstar Optima microplate reader (BMG Labtech, Cary, NC, USA). The fluorescence intensity was normalized to 100% for untreated cells and the results are expressed as a percentage of viable cells.

[3] = test system: extracellular domain of EGFR; details: cited from earlier work; for affinity for EGFR (in words): binding to domain I of the extracellular domain of EGFR
From the text: (§2) We have previously reported the conjugation of BODIPYs to the EGFR-L1 peptide via traditional amidation reactions, and nucleophilic additions to isothiocyanato-functionalized fluorophores. Herein we report the use of click chemistry for conjugation of two EGFR-L1-derived peptides bearing an azide N-terminus (cycloL1.1 and L1.5) to alkynyl-functionalized BODIPYs. […] In previous work, we reported the conjugation of this peptide to a porphyrin [19], phthalocyanine, and BODIPY dyes, using either traditional amidation methodologies or nucleophilic addition to isothiocyanato-functionalized fluorophores. […] In order ...

[4] = cited from earlier work
From the text: as §2

[5] = test system: HT-29 cells; test: Competitive binding of conjugate 5 with cycloL1.1, BODIPY fluorescence; format: cell-based; details: HT-29 (~78% EGFR expression); conjugate 5 at 50 μM, cyclo(K(N3)larllt) 0.25 to 100 μM, 45 min, 37 °C, PBS; ex 614 / em 648 nm; triplicate
Experimental: In these studies, HT-29 (~78% EGFR expression), DLD-1 (~40% EGFR expression), and LOVO (~6% EGFR expression) were used.
Cells HT-29 (~78% EGFR) DLD-1 (~37% EGFR) and LOVO (~6% EGFR) with high, moderate, and low EGFR expressions, respectively, were used in these studies. About ten thousand cells of each cell line were coated in a 96 well clear bottom tissue culture black plate and incubated overnight at 37 °C with 5% CO2. […] PBS was used for dilution of compounds. The plate was then covered in aluminum foil and incubated at 37 °C with 5% CO2. After 45 min, each well was washed twice with 100 μL of PBS, and fluorescence was determined with a microplate reader using an excitation wavelength of 614 nm and an emission wavelength of 648 nm. Autofluorescence values were subtracted from each well. A plot of concentrations vs. relative fluorescence was plotted. Results in Figure 4 are expressed as ±S.E.

Row | Molecule | affinity for EGFR (in words) [3] | stability in human serum (in words) [4] | other results
1 | CCC1=C(C)C2=C(c3ccc(OCc4cn(CCCC[C@H](N)C(=O)N[C@@H](CC(C)C)C(=O)N[C@@H](C)C(=O)N[C@@H](CCCNC(=N)N)C(=O)N[C@@H](CC(C)C)C(=O)N[C@@H](CC(C)C)C(=O)N[C@H](C(N)=O)[C@@H](C)O)nn4)cc3)c3c(C)c(CC)c(C)n3[B-](F)(F)[N+]2=C1C [Conjugate 3, 1,3,5,7-tetramethyl-2,6-diethyl-8-(4-phenoxymethyltriazole K(N3)LARLLT)-BODIPY] | – | – | phototoxicity, ranking in words [1]: least toxic; dark toxicity, ranking in words [2]: least toxic
2 | CC(C)C[C@H]1NC(=O)[C@H](CCCCN=[N+]=[N-])NC(=O)[C@@H]([C@H](C)O)NC(=O)[C@@H](CC(C)C)NC(=O)[C@@H](CC(C)C)NC(=O)[C@@H](CCCNC(=N)N)NC(=O)[C@@H](C)NC1=O [cycloL1.1, cyclo(K(N3)larllt)] | high affinity | enhanced stability in human serum | competitive binding: change of BODIPY fluorescence intensity with added cyclic peptide [5]: able to replace conjugate 5 competitively
3 | K(N3)LARLLT [Conjugate L1.5, linear EGFR-L1-derived azido peptide] | increased affinity for EGFR compared to the parent peptide | enhanced stability in human serum | –
4 | LARLLT [EGFR-L1, EGFR-targeting peptide ligand reported in 2009 by Song et al, reference compound] | – | – | affinity for the extracellular domain of EGFR (in words) ([3]; both in vitro and in vivo): high affinity
